From patent US9504728B2, “Dosage form” (priority 2011, dated 2016)
Where two headings read alike, the source gives them in different places.

Tests used:
HBV = conditions: Ptak et al. 2008; read-out: IC50 against HBV; cited from earlier work
HIV-1 = conditions: Steyn et al., 2006, cited from earlier work
calcineurin = conditions: in words; Zenke et al. 2001; cited from earlier work
in vivo = conditions: CD1 mice, p.o. 10 or 5 mg/kg vs i.v. 1 mg/kg
Method: For sanglifehrins, whole blood is analysed. Compounds are formulated in 5% ethanol/5% cremophor EL/90% saline for both p.o. and i.v. administration. Groups of 3 male CD1 mice are dosed with either 1 mg/kg i.v. or 5 or 10 mg/kg p.o. Blood samples (40 μL) are taken via saphenous vein, pre-dose and at 0.25, 0.5, 2, 8, and 24 hours, and diluted with an equal amount of dH20 and put on dry ice immediately. Samples are stored at −70° C. until analysis. The concentration of the sanglifehrin or parent compound in the sample is determined via LCMS as follows: 20 μL of blood:H2O (1:1, v/v)/PK sample is added with 20 μL Internal standard (hydroxyl macrocycle, 6) at 100 ng/mL, 20 μL working solution/MeOH and 150 μL of ACN, vortexed for 1 minute at 1500 rpm, and centrifuged at 12000 rpm for 5 min. The supernatant is then injected into LC-MS/MS. The time-course of blood concentrations is plotted and used to derive area under the whole blood concentration-time curve (AUC—which is directly proportional to the total amount of unchanged drug that reaches the systemic circulation). These values are used to generate PK parameters where possible.
To assess the pharmacokinetics of the compounds in an in vivo setting, compounds were dosed po at 10 or 5 mg/kg and iv at 1 mg/kg to groups of CD1 mice.
Pharmacokinetic analysis was carried out as described in the general methods.

[1] = In vitro stability in acidic and neutral conditions (SGF, SGF + pepsin, SGF + denatured pepsin, PBS); conditions: 1 hour
Method: 1 mM DMSO solutions were made of compounds to be tested and mixed on vibrax to ensure compound was fully dissolved.
PBS Solution: 2 tablets of Phosphate Buffered Saline (Dulbecco A) tablets (Oxoid, BR0014G) were added to 200 mL distilled water and stirred to mix. pH was measured at 7.28.
Simulated Gut Fluid (SGF): 300 uL conc. HCl added to 50 mL distilled water and mixed. pH was measured at 1.21.
Simulated gut fluid+pepsin: 300 uL conc. HCl and 1 g of Pepsin (from Porcine gastric mucosa, Sigma) were added to 50 mL distilled water and mixed by stirring for 1 hr.
SGF+denatured pepsin: 900 uL of Acidic Enzyme Solution taken into a 2 mL eppendorf tube and heated at 99° C. in a water bath for 30 mins.
Acidic Enzyme and Acidic Denatured Enzyme solutions were made fresh each day, whereas PBS and Acid Solutions were stored at 4° C. when not in use.
Eppendorfs containing 900 uL of test solutions were pre-warmed in a 37° C. water bath. At t=0, 100 uL of test compound (1 mM DMSO solution) was added to test solution and mixed. 100 uL was taken immediately and mixed into 900 uL acetonitrile in an amber glass LC vial. 50-100 uL of the sample was analysed by HPLC, integrating the compounds' UV peaks to determine degradation over time. Sanglifehrin A was measured at its λmax of 240 nm; 33, 45 and 24 were measured at their λmax of 276 nm.
Further samples were taken in the same manner for analysis at approximately t=0.33, 0.67, 1.0, 2.67, and 4.67 hr. A final analysis was run at t=>30 to confirm end point of reaction.
Controls of test compound DMSO solutions in 900 uL DMSO were also prepared and treated in the same manner, with samples analysed at t=0, t=8 and t=>30 hr. Half lives were calculated from the data generated.
Stability of compounds was analysed in simulated gastric fluid, pH1.2 (SGF) and phosphate buffered saline, pH7.3 (PBS).

cyclophilin A (CypA) = cyclophilin A (CypA) (Homo sapiens, UniProt P62937); conditions: relative to CsA; cited from earlier work
Chain of cyclophilin A (CypA) (P62937 whole entry): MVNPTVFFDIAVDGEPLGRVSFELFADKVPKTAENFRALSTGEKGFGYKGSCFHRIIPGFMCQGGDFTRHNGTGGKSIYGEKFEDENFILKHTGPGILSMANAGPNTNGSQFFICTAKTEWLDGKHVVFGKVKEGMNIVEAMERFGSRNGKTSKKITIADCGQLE

Compound | IC50 (HBV) [µM] | reduction of HIV-1 RNA levels (HIV-1; in nine patients) [log 10 copies/mL] | reduction of HIV-1 RNA levels (HIV-1; in two patients) [log 10 copies/mL] | inhibition of the phosphatase activity of calcineurin (calcineurin) | Oral bioavailability F % (in vivo) [%] | SGF + denatured pepsin, % remaining after 1 hour ([1]; SGF + denatured pepsin, 37° C.) [%] | SGF + Pepsin, % remaining after 1 hour ([1]; SGF + pepsin, 37° C.) [%] | PBS % remaining after 1 hour ([1]; phosphate buffered saline pH 7.3, 37° C.) [%] | SGF % remaining after 1 hour ([1]; simulated gastric fluid pH 1.2, 37° C.) [%] | affinity for CyPA compared to Cyclosporine A (fold higher) (cyclophilin A (CypA))
C/C=C/C[C@@H](C)[C@@H](O)[C@H]1C(=O)N[C@@H](CC)C(=O)N(C)[C@H](C)C(=O)N(CC)[C@@H](C(C)C)C(=O)N[C@@H](C(C)C)C(=O)N(C)[C@@H](CC(C)C)C(=O)N[C@@H](C)C(=O)N[C@H](C)C(=O)N(C)[C@@H](CC(C)C)C(=O)N(C)[C@@H](CC(C)C)C(=O)N(C)[C@@H](C(C)C)C(=O)N1C [DEBIO-025] | 4.1 | ≥ 0.5 | > 1 | – | – | – | – | – | – | –
CC[C@H]1C[C@H](C)[C@@]2(NC1=O)O[C@@H](C[C@H](O)[C@@H](C)CC/C=C/C=C(\C)[C@@H]1C/C=C/C=C/[C@H](O)[C@H](C)[C@@H](O)[C@@H](CCC(C)=O)C(=O)N[C@@H](C(C)C)C(=O)N[C@@H](Cc3cccc(O)c3)C(=O)N3CCC[C@H](N3)C(=O)O1)[C@H](C)[C@H](O)[C@@H]2C [Sanglifehrin A, 5, Sanglifehrin A, reference compound] | – | – | – | does not inhibit | 1.4 | 49 | 41 | 76 | 52 | approximately 20 fold
